ChEMBL document CHEMBL1201862, “PubChem BioAssay data set” (2004)
Active and inactive are the calls of the source.

Legend:
[1] = inhibitors of Vif binding to APOBEC3G peptide, primary screen, biochemical, TR-FRET, GST-Vif 1-94, biotin-A3G peptide, dose response retest (AID 1117319); assay type: functional;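 also: TR-FRET signal of purified GST-Vif binding a biotinylated A3G peptide; inhibitors lower the FRET signal by blocking Vif and A3G binding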
[2] = target: T1, DNA repair protein RAD52 homolog (Homo sapiens, UniProt P43351); assay type: functional, biochemical
T1 sequence (P43351 whole entry): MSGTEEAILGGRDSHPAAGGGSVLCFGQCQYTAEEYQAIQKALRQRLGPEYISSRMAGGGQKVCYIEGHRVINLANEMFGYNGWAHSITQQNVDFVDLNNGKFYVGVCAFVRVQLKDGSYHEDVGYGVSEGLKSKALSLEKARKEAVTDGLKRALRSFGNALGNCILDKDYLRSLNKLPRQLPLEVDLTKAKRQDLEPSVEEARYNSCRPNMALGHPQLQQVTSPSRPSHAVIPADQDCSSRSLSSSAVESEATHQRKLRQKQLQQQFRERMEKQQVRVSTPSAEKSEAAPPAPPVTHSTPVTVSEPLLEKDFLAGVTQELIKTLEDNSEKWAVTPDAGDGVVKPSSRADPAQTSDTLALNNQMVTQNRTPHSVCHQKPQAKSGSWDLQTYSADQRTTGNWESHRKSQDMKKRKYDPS

[3] = target: T2, Rac GTPase-activating protein 1 (Homo sapiens, UniProt Q9H0H5); assay: MgcRacGAP GTPase-activating activity inhibitors, confirmation, biochemical, ADP Hunter fluorescence, primary and confirmatory (AID 624330); assay type: functional
T2 sequence (Q9H0H5 whole entry): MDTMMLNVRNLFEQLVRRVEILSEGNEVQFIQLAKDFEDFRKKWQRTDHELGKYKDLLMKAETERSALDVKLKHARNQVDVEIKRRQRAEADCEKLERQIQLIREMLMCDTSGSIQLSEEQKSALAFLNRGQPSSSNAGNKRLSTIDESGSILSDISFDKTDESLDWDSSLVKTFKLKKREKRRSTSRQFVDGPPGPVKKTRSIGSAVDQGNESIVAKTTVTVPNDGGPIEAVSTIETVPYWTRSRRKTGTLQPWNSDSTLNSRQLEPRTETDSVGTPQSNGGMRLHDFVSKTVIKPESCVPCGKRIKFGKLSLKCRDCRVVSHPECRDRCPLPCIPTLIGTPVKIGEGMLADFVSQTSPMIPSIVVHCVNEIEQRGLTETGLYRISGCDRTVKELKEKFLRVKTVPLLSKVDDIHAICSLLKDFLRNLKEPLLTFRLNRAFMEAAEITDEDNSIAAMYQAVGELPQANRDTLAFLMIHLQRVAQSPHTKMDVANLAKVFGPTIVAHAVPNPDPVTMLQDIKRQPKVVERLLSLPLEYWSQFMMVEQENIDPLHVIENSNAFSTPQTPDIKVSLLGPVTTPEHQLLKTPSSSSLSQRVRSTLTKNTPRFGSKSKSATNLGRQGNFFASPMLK

Large T antigen = Large T antigen (Simian virus 40, UniProt P03070); assay type: functional, Betapolyomavirus macacae;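 also: Confirmatory-stage PubChem screen for compounds that inhibit SV40 T antigen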
[4] = target: T3, Histone-lysine N-methyltransferase NSD2 (Homo sapiens, UniProt O96028); assay type: biochemical
T3 sequence (O96028 whole entry): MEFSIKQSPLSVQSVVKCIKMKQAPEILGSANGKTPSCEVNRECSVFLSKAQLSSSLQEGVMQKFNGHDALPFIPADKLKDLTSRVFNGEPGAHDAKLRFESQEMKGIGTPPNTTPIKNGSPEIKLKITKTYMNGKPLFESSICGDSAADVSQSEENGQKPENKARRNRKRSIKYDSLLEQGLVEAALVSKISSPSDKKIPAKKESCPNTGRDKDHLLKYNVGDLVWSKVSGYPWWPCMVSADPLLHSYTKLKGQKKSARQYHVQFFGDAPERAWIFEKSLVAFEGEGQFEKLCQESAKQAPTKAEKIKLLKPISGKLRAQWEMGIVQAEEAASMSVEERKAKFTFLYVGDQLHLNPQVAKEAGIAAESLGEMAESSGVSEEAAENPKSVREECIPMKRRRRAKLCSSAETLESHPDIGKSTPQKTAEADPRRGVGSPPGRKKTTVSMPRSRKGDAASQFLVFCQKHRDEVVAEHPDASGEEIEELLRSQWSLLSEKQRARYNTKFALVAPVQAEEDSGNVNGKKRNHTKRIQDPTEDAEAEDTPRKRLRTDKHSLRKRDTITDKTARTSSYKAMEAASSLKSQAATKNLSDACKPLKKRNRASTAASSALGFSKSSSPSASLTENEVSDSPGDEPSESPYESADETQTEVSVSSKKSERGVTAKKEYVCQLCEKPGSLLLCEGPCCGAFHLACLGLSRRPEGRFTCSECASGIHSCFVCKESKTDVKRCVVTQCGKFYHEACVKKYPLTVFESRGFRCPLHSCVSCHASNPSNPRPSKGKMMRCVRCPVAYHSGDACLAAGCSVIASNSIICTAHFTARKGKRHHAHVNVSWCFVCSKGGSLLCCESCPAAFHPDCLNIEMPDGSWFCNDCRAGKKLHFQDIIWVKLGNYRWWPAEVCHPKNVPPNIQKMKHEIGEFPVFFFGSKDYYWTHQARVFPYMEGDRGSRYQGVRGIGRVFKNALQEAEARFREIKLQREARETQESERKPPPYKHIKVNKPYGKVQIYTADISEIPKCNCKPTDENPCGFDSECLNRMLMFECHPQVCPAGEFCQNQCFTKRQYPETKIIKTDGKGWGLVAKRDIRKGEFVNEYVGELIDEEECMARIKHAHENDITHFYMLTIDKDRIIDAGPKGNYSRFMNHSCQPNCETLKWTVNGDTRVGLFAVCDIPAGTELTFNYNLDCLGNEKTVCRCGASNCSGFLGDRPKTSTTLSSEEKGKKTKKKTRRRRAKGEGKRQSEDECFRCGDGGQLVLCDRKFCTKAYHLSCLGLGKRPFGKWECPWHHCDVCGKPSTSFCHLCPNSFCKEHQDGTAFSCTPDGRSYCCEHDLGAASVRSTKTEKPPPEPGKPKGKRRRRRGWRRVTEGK

[5] = target: T4, Heat shock factor protein 1 (Mus musculus, UniProt P38532); assay: inhibition of MG132-induced HSE-luciferase signal, confirmation, cell-based, NIH3T3, luminescence, dose retest (AID 2382); assay type: functional;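 also: NIH3T3 fibroblasts with HSF1-driven luciferase reporter stressed by proteasome inhibitor MG132; luminescence from HSF1-driven luciferase expression after 8 hours of MG132 stress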
T4 sequence (P38532 whole entry): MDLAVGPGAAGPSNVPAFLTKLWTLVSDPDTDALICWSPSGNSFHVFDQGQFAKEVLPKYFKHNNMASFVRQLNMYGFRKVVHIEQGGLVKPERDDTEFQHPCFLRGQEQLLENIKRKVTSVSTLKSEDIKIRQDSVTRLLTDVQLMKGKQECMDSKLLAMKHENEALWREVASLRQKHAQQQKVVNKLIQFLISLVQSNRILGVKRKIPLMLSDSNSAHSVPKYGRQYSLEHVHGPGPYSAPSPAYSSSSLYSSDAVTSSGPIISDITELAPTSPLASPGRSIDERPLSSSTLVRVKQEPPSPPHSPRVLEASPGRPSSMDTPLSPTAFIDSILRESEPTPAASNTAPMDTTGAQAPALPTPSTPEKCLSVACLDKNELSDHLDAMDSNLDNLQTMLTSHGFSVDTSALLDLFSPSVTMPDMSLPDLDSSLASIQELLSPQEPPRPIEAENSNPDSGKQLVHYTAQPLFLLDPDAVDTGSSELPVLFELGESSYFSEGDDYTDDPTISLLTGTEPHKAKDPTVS

[6] = Shn3 3'UTR reporter inhibitors, dose response, cell-based, Clone20 osteoblasts, firefly luciferase, cherry-picked (AID 624132); assay type: functional;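 also: firefly luciferase luminescence from reporter carrying the Shn3 3'UTR in osteoblasts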
[7] = Luminescence Cell-Based Dose Retest to Confirm Inhibitors of Cancer Stem Cells. [Related pubchem assays (depositor defined):AID2717, AID2721]; assay type: functional; conditions: Homo sapiens
[8] = target: Heat shock protein HSP 90-alpha (Homo sapiens, UniProt P07900); assay type: functional, organism-based
[9] = target: T5, Polyadenylate-binding protein 1 (Homo sapiens, UniProt P11940); assay: PABP1 MLLE–PAM2 binding inhibitor potency, dose response, biochemical, fluorescence polarization, FITC-PAM2 peptide (AID 602259); assay type: functional; conditions: read-out: IC50_Mean
[10] = target: T5, Polyadenylate-binding protein 1; assay: PABP1 MLLE–PAM2 interaction inhibitors, dose response, miRNA deadenylation inhibitor project, biochemical, fluorescence polarization, Cy5-PAM2 peptide, secondary (AID 602260); assay type: functional; conditions: read-out: IC50_Mean
cells [11] = assay type: functional, cell-based
[12] = tested on: Streptococcus sp. 'group A'; assay: growth inhibition of control SK(-) GAS strain, dose response, counter-screen for streptokinase expression inhibitor project, luminescence, kanamycin, BacTiterGlo, confirmation (AID 1900); assay type: functional, organism-based
[13] = Luminescence Cell-Based Dose Response HTS to Identify Inhibitors of 5'UTR Stem-Loop Driven Prion Protein mRNA Translation in H4 Neuroglioblastoma Cells. [Related pubchem assays: 1827 (Project Summary), 1813 (Primary HTS)]; assay type: functional
Streptococcus = assay: Group A Streptococcus viability loss, dose response, counter-screen for streptokinase expression inhibitor project, luminescence, BacTiterGlo (AID 1915); assay type: functional, organism-based;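 also: potency for reduction of bacterial viability or growth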
HEK293 = assay: inhibitors of LMP1-driven NF-kB reporter, dose response, cell-based, HEK293, luciferase, cherry-pick (AID 588343); assay type: functional; conditions: Homo sapiens
[14] = NIH-3T3 fibroblast cytotoxicity, dose response, cytotoxicity control, cell-based, fluorescence, Alamar Blue, secondary assay (AID 2327); assay type: functional;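 also: NIH-3T3 mouse fibroblasts cultured with fluconazole at 8 µg/mL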
cells [15] = assay type: functional, cell-based; remark: listed apart in the source
[16] = C. albicans growth with fluconazole, confirmation, fluorescence, retest (AID 2467); assay type: functional, cell-based
[17] = inhibitors of SNCA 5'UTR-driven reporter translation, confirmation, H4 neuroglioma cells, luminescence (AID 1988); assay type: functional, cell-based
[18] = target: T6, RNA-binding protein pos-1 (Caenorhabditis elegans, UniProt G5EF15); assay: inhibitors of POS-1/mex-3 RNA binding, dose response, biochemical, fluorescence polarization (AID 1964);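 also: purified POS-1 fused to maltose binding protein made in E. coli; potency of compounds blocking POS-1 binding to fluorescent RNA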
T6 sequence (G5EF15 whole entry): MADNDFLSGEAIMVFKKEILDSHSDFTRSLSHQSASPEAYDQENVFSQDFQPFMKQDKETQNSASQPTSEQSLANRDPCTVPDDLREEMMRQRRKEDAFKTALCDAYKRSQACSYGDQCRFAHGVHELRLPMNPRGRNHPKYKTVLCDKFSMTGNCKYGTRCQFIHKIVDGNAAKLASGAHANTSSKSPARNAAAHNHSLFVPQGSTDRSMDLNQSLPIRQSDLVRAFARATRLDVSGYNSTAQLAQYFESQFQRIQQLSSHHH

[19] = target: T7, Zinc finger protein mex-5 (Caenorhabditis elegans, UniProt Q9XUB2); assay: MEX-5/TCR-2 RNA interaction inhibitors, dose response, biochemical, C. elegans, fluorescence polarization (AID 1960)
T7 sequence (Q9XUB2 whole entry): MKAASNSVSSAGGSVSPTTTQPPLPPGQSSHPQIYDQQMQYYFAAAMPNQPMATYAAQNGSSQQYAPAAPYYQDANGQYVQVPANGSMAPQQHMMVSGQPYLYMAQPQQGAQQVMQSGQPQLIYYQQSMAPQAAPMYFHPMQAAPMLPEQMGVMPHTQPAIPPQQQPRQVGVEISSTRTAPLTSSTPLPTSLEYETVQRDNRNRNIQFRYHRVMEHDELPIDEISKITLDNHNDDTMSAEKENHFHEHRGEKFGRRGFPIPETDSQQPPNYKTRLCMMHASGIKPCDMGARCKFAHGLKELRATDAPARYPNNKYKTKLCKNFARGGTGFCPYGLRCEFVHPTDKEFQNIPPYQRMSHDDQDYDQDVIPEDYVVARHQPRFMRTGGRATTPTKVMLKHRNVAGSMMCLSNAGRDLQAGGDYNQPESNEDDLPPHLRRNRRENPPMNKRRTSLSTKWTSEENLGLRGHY

T5 sequence (P11940 whole entry): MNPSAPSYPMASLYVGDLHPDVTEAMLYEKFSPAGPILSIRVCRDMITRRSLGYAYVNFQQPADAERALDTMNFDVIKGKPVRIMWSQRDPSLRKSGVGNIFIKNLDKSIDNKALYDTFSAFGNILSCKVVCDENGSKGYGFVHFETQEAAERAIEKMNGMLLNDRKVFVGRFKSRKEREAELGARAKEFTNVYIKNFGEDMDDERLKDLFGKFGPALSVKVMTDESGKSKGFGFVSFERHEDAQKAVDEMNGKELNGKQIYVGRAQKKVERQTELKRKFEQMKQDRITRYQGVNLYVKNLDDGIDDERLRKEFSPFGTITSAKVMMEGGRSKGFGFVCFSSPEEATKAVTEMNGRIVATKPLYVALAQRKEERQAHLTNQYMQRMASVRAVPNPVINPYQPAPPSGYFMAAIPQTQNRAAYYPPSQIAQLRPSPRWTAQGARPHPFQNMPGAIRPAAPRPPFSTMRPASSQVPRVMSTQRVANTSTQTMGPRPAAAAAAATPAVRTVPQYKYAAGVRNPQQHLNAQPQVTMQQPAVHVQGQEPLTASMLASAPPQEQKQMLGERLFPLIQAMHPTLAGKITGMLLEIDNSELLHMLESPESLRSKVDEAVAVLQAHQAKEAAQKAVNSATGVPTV
Sequence of Large T antigen (P03070 whole entry): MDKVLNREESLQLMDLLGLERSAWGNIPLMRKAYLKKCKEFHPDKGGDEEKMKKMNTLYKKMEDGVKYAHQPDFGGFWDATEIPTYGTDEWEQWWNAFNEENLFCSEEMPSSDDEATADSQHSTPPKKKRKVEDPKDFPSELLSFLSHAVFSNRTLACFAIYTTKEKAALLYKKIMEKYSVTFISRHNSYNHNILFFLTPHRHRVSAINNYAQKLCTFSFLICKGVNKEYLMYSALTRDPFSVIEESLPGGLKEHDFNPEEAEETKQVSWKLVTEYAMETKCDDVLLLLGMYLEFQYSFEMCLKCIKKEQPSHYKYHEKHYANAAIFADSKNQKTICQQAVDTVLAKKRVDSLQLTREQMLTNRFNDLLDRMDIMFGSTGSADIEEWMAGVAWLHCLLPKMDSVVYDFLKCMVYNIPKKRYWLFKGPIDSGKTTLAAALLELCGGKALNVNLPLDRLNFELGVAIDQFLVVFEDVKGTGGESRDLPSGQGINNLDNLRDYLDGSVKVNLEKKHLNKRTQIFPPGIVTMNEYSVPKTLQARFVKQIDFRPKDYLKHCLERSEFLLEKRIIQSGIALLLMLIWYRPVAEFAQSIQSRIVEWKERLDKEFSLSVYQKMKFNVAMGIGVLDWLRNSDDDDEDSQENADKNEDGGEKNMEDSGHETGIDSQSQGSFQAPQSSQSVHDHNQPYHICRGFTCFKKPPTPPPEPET

## CCCc1cc(O)nc(SCC(=O)Nc2cc3c(cc2C(C)=O)OCO3)n1
[1]
  IC50: > 100 µM (active)

## Nc1ccc(Nc2ccncc2)cc1
[2]
  AC50: 16.9 µM (active)
[3]
  IC50: 247 µM (active)

## COc1cc(/C=N/N=C2/C(=O)Nc3ccccc32)cc(OC)c1O
Large T antigen
  IC50: 12.4 µM (active)
[4]
  AC50: > 20 µM (inactive)
[3]
  IC50: 50.9 µM (active)
[5]
  EC50: > 195 µM (not active)

## O=C(CSc1nc2c(c(=O)n1-c1ccc(Br)cc1)SCC2)NCc1ccco1
[6]
  AC50: 43 µM (active)

## Cc1cccc(C)c1N=Nc1c(C)cc(O)cc1C
[7]
  AC50: 5.46 µM (active)
[4]
  AC50: > 20 µM (inactive)
[8]
  AC50: 8.38 µM (active)

## CC1(c2ccc3noc(-c4ccccc4)c3c2)OCCO1
[1]
  IC50: > 100 µM (active)

## Cc1cc(N/N=C/c2ccc(O)cc2)c2cccc(C)c2n1
[2]
  AC50: 2.56 µM (active)

## COc1cccc(NC(=O)CN(C)C(=O)CSC(=S)N2CCCC2)c1
[9]
  IC50: > 66 µM (inactive)
[10]
  IC50: > 66 µM (inactive)

## CCCCCOC(=O)c1c(N)n(CCOC)c2nc3ccccc3nc12
[4]
  AC50: 15.7 µM (active)

## O=C(Oc1ccccc1)c1cc(O)c(O)c(O)c1
[4]
  AC50: 4.01 µM (active)

## O=C(/C=C/c1ccco1)Oc1cc(Br)cc(/C=N/NC(=O)c2ccccc2O)c1
Cells [11]
  EC50: 8.58 µM (active)
[12]
  EC50: 5.69 µM (active)
[13]
  EC50: 7.54 µM (active)
Streptococcus
  EC50: 5.62 µM (active)
HEK293
  AC50: 5.21 µM (active)
[14]
  EC50: > 160 µM (inactive)
Cells [15]
  EC50: 15.2 µM (active)
[16]
  EC50: 1.49 µM (active)
[17]
  EC50: 2.62 µM (active)

## CN(C)c1ccc2nc3ccc(=[N+](C)C)cc-3sc2c1 [METHYLENE BLUE ANHYDROUS]
[18]
  EC50: 187 µM (active)
[2]
  AC50: 0.936 µM (active)
[19]
  EC50: 114 µM (active)

## O=C(Cc1ccc(Br)cc1)N1CCN(c2ccccn2)CC1
[9]
  IC50: > 66 µM (inactive)
[10]
  IC50: > 66 µM (inactive)

## CCc1c(C2CC2)ncn1Cc1cccc(-c2ccccc2)c1
[2]
  AC50: 24.5 µM (active)

## c1ccc(P(c2ccccn2)c2ccccn2)cc1
[9]
  IC50: > 66 µM (inactive)
[10]
  IC50: > 66 µM (inactive)

## CCNC(=O)CC1C(=O)N(c2ccc(C)cc2)C(=O)N1CCc1ccc(OC)c(OC)c1 (centres undefined)
[1]
  IC50: > 100 µM (active)

## COc1ccc(C(=O)NC(=S)NCc2cccnc2)cc1[N+](=O)[O-]
[9]
  IC50: > 66 µM (inactive)
[10]
  IC50: > 66 µM (inactive)

## Cc1ccc(S(=O)(=O)N2CCCCC2)cc1NC(=S)NC(=O)c1ccco1
[9]
  IC50: > 66 µM (inactive)
[10]
  IC50: > 66 µM (inactive)
